Biological target: BTK (Homo sapiens (Human), UniProt Q06187)
Test: BTK enzymatic activity assay (Caliper-based kinase assay)
Assay type: biochemical
Details: human recombinant BTK 0.5 nM, ATP 16 μM, 3 h room temperature
Method: A Caliper-based kinase assay (Caliper Life Sciences, Hopkinton, Mass.) was used to measure inhibition of BTK kinase activity of a compound of the present disclosure. […] The reaction was then terminated with EDTA, final concentration 20 mM and the phosphorylated reaction product was quantified on a Caliper Desktop Profiler (Caliper LabChip 3000). […] This value is presented as the IC50.

Chain of BTK (Q06187 whole entry): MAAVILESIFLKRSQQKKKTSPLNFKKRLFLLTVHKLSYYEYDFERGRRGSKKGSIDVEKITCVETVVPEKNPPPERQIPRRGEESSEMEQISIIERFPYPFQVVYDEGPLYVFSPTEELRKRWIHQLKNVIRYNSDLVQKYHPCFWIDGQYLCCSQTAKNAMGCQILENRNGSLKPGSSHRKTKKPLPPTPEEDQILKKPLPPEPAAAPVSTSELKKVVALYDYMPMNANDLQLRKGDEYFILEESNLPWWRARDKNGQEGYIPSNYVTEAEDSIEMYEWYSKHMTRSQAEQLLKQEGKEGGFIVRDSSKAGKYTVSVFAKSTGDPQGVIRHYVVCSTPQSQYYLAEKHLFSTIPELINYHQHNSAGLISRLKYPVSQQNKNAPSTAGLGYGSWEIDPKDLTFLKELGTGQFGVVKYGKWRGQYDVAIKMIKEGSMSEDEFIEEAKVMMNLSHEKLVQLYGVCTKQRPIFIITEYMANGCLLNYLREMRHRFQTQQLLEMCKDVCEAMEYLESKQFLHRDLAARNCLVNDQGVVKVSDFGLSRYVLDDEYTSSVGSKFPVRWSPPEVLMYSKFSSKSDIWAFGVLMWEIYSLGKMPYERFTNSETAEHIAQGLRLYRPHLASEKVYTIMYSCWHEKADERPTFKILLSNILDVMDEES

Row | SMILES | IC50 [nM]
1 | N#CC(=CC(CCO)CCO)C(=O)N1CCC[C@@H](n2c(=O)n(-c3ccc(Oc4ccccc4)cc3)c3c(N)nccc32)C1 [Compound 11, (R)-2-(3-(4-amino-2-oxo-3-(4-phenoxyphenyl)-2,3-dihydro-1H-imidazo[4,5-c]pyridin-1-yl)piperidine-1-carbonyl)-6-hydroxy-4-(2-hydroxyethyl)hex-2-enenitrile] | 78.6
2 | C[C@@H]1CN(C(C)(C)C=C(C#N)C(=O)N2CCC[C@@H](n3c(=O)n(-c4ccc(Oc5ccccc5)cc4)c4c(N)nccc43)C2)C[C@H](C)N1 [Compound 19, 2-((R)-3-(4-amino-2-oxo-3-(4-phenoxyphenyl)-2,3-dihydro-1H-imidazo[4,5-c]pyridin-1-yl)piperidine-1-carbonyl)-4-((3R,5S)-3,5-dimethylpiperazin-1-yl)-4-methylpent-2-enenitrile] | 7.8
3 | N#CC(=CC1CCSCC1)C(=O)N1CCC[C@@H](n2c(=O)n(-c3ccc(Oc4ccccc4)cc3)c3c(N)nccc32)C1 [Compound 20, (R)-2-(3-(4-amino-2-oxo-3-(4-phenoxyphenyl)-2,3-dihydro-1H-imidazo[4,5-c]pyridin-1-yl)piperidine-1-carbonyl)-3-(tetrahydro-2H-thiopyran-4-yl)acrylonitrile] | 14.5
4 | CC(C)(C=C(C#N)C(=O)N1CCC[C@@H](n2c(=O)n(-c3ccc(Oc4ccccc4)cc3)c3c(N)nccc32)C1)N1CCNC(=O)C1 [Compound 21, (R)-2-(3-(4-amino-2-oxo-3-(4-phenoxyphenyl)-2,3-dihydro-1H-imidazo[4,5-c]pyridin-1-yl)piperidine-1-carbonyl)-4-methyl-4-(3-oxopiperazin-1-yl)pent-2-enenitrile] | 4.6
5 | C=CC(=O)N1CCC[C@H]1Cn1c(=O)n(-c2ccc(Oc3ccccc3)cc2)c2c(N)nccc21 [Compound 22, (S)-1-((1-acryloylpyrrolidin-2-yl)methyl)-4-amino-3-(4-phenoxyphenyl)-1H-imidazo[4,5-c]pyridin-2(3H)-one] | 4.8
6 | CC#CC(=O)N1CCC[C@H]1Cn1c(=O)n(-c2ccc(Oc3ccccc3)cc2)c2c(N)nccc21 [Compound 23, (S)-4-amino-1-((1-(but-2-ynoyl)pyrrolidin-2-yl)methyl)-3-(4-phenoxyphenyl)-1H-imidazo[4,5-c]pyridin-2(3H)-one] | 25.9
7 | CC(C)(C=C(C#N)C(=O)N1CCC[C@@H](n2c(=O)n(-c3ccc(Oc4c(F)cccc4F)cc3)c3c(N)nccc32)C1)N1CCN(C2COC2)CC1 [Compound 24, (R)-2-(3-(4-amino-3-(4-(2,6-difluorophenoxy)phenyl)-2-oxo-2,3-dihydro-1H-imidazo[4,5-c]pyridin-1-yl)piperidine-1-carbonyl)-4-methyl-4-(4-(oxetan-3-yl)piperazin-1-yl)pent-2-enenitrile] | 4.7
8 | CC(C)(C=C(C#N)C(=O)N1CCC[C@@H](n2c(=O)n(-c3ccc(Oc4cccc(F)c4F)cc3)c3c(N)nccc32)C1)N1CCN(C2COC2)CC1 [Compound 25, (R)-2-(3-(4-amino-3-(4-(2,3-difluorophenoxy)phenyl)-2-oxo-2,3-dihydro-1H-imidazo[4,5-c]pyridin-1-yl)piperidine-1-carbonyl)-4-methyl-4-(4-(oxetan-3-yl)piperazin-1-yl)pent-2-enenitrile] | 5.4
9 | CC(C)(C=C(C#N)C(=O)N1CCC[C@@H](n2c(=O)n(-c3ccc(Oc4ccccc4)c(F)c3)c3c(N)nccc32)C1)N1CCN(C2COC2)CC1 [Compound 26, (R)-2-(3-(4-amino-3-(3-fluoro-4-phenoxyphenyl)-2-oxo-2,3-dihydro-1H-imidazo[4,5-c]pyridin-1-yl)piperidine-1-carbonyl)-4-methyl-4-(4-(oxetan-3-yl)piperazin-1-yl)pent-2-enenitrile] | 3.5
10 | CC(C)(C=C(C#N)C(=O)N1CCC[C@@H](n2c(=O)n(-c3ccc(Oc4ccccc4)cc3F)c3c(N)nccc32)C1)N1CCN(C2COC2)CC1 [Compound 27, (R)-2-(3-(4-amino-3-(2-fluoro-4-phenoxyphenyl)-2-oxo-2,3-dihydro-1H-imidazo[4,5-c]pyridin-1-yl)piperidine-1-carbonyl)-4-methyl-4-(4-(oxetan-3-yl)piperazin-1-yl)pent-2-enenitrile] | 4.9
11 | Cc1cc(-n2c(=O)n([C@@H]3CCCN(C(=O)C(C#N)=CC(C)(C)N4CCN(C5COC5)CC4)C3)c3ccnc(N)c32)ccc1Oc1ccccc1 [Compound 28, (R)-2-(3-(4-amino-3-(3-methyl-4-phenoxyphenyl)-2-oxo-2,3-dihydro-1H-imidazo[4,5-c]pyridin-1-yl)piperidine-1-carbonyl)-4-methyl-4-(4-(oxetan-3-yl)piperazin-1-yl)pent-2-enenitrile] | 4.8
12 | CC(C)(C=C(C#N)C(=O)N1CCC[C@@H](n2c(=O)n(-c3ccc(Oc4ccccc4)cc3)c3c(N)nccc32)C1)N1CCn2cnnc2C1 [Compound 29, (R)-2-(3-(4-amino-2-oxo-3-(4-phenoxyphenyl)-2,3-dihydro-1H-imidazo[4,5-c]pyridin-1-yl)piperidine-1-carbonyl)-4-(5,6-dihydro-[1,2,4]triazolo[4,3-a]pyrazin-7(8H)-yl)-4-methylpent-2-enenitrile] | 1.8
13 | CC(C)(C=C(C#N)C(=O)N1CCC[C@@H](n2c(=O)n(-c3ccc(Oc4ccccc4)cc3)c3c(N)nccc32)C1)N1CCN(C2(C)COC2)CC1 [Compound 30, (R)-2-(3-(4-amino-2-oxo-3-(4-phenoxyphenyl)-2,3-dihydro-1H-imidazo[4,5-c]pyridin-1-yl)piperidine-1-carbonyl)-4-methyl-4-(4-(3-methyloxetan-3-yl)piperazin-1-yl)pent-2-enenitrile] | 1.5
14 | CC(C)(C=C(C#N)C(=O)N1CCC[C@@H](n2c(=O)n(-c3ccc(Oc4ccccc4)cc3)c3c(N)ncnc32)C1)N1CCN(C2COC2)CC1 [Compound 31, (R)-2-(3-(6-amino-8-oxo-7-(4-phenoxyphenyl)-7H-purin-9(8H)-yl)piperidine-1-carbonyl)-4-methyl-4-(4-(oxetan-3-yl)piperazin-1-yl)pent-2-enenitrile] | 3.7

Next, values leading:

Row | IC50 [nM] | SMILES
15 | 2.9 | CC1(C=C(C#N)C(=O)N2CCC[C@@H](n3c(=O)n(-c4ccc(Oc5ccccc5)cc4)c4c(N)ncnc43)C2)CCN(C2COC2)CC1 [Compound 32, (R)-2-(3-(6-amino-8-oxo-7-(4-phenoxyphenyl)-7H-purin-9(8H)-yl)piperidine-1-carbonyl)-3-(4-methyl-1-(oxetan-3-yl)piperidin-4-yl)acrylonitrile]
16 | 23.1 | CN1CCN(C(C)(C)C=C(C#N)C(=O)N2CCC[C@H]2Cn2c(=O)n(-c3ccc(Oc4ccccc4)cc3)c3c(N)nccc32)CC1 [Compound 34, (S)-2-(2-((4-amino-2-oxo-3-(4-phenoxyphenyl)-2,3-dihydro-1H-imidazo[4,5-c]pyridin-1-yl)methyl)pyrrolidine-1-carbonyl)-4-methyl-4-(4-methylpiperazin-1-yl)pent-2-enenitrile]
17 | 26.2 | CN1CCN(C(C)(C)C=C(C#N)C(=O)N2CCC[C@H]2Cn2c(=O)n(-c3ccc(Oc4ccccc4)cc3)c3c(N)nccc32)CC1=O [Compound 35, (S)-2-(2-((4-amino-2-oxo-3-(4-phenoxyphenyl)-2,3-dihydro-1H-imidazo[4,5-c]pyridin-1-yl)methyl)pyrrolidine-1-carbonyl)-4-methyl-4-(4-methyl-3-oxopiperazin-1-yl)pent-2-enenitrile]
18 | 15.7 | CN(C1COC1)C(C)(C)C=C(C#N)C(=O)N1CCC[C@H]1Cn1c(=O)n(-c2ccc(Oc3ccccc3)cc2)c2c(N)nccc21 [Compound 36, (S)-2-(2-((4-amino-2-oxo-3-(4-phenoxyphenyl)-2,3-dihydro-1H-imidazo[4,5-c]pyridin-1-yl)methyl)pyrrolidine-1-carbonyl)-4-methyl-4-(methyl(oxetan-3-yl)amino)pent-2-enenitrile]
19 | 4.3 | CC1(C=C(C#N)C(=O)N2CCC[C@@H](n3c(=O)n(-c4ccc(Oc5ccccc5)cc4)c4c(N)nccc43)C2)CCOCC1 [Compound 37, (R)-2-(3-(4-amino-2-oxo-3-(4-phenoxyphenyl)-2,3-dihydro-1H-imidazo[4,5-c]pyridin-1-yl)piperidine-1-carbonyl)-3-(4-methyltetrahydro-2H-pyran-4-yl)acrylonitrile]
20 | 5.7 | CC(C)(C=C(C#N)C(=O)N1CCC[C@@H](n2c(=O)n(-c3ccc(Oc4ccccc4F)cc3)c3c(N)nccc32)C1)N1CCN(C2COC2)CC1 [Compound 38, (R)-2-(3-(4-amino-3-(4-(2-fluorophenoxy)phenyl)-2-oxo-2,3-dihydro-1H-imidazo[4,5-c]pyridin-1-yl)piperidine-1-carbonyl)-4-methyl-4-(4-(oxetan-3-yl)piperazin-1-yl)pent-2-enenitrile]
21 | 5.3 | N#CC(=CC1CC[S+]([O-])CC1)C(=O)N1CCC[C@@H](n2c(=O)n(-c3ccc(Oc4ccccc4)cc3)c3c(N)nccc32)C1 (stereo partly drawn) [Compound 39, (R)-2-(3-(4-amino-2-oxo-3-(4-phenoxyphenyl)-2,3-dihydro-1H-imidazo[4,5-c]pyridin-1-yl)piperidine-1-carbonyl)-3-(1-oxidotetrahydro-2H-thiopyran-4-yl)acrylonitrile]
22 | 5.7 | CCN1CCN(C(C)(C)C=C(C#N)C(=O)N2CCC[C@@H](n3c(=O)n(-c4ccc(Oc5ccccc5)cc4)c4c(N)nccc43)C2)CC1=O [Compound 40, (R)-2-(3-(4-amino-2-oxo-3-(4-phenoxyphenyl)-2,3-dihydro-1H-imidazo[4,5-c]pyridin-1-yl)piperidine-1-carbonyl)-4-(4-ethyl-3-oxopiperazin-1-yl)-4-methylpent-2-enenitrile]
23 | 3.1 | N#CC(=CC1CC1)C(=O)N1CCC[C@@H](n2c(=O)n(-c3ccc(Oc4ccccc4)cc3)c3c(N)nccc32)C1 [Compound 41, (R)-2-(3-(4-amino-2-oxo-3-(4-phenoxyphenyl)-2,3-dihydro-1H-imidazo[4,5-c]pyridin-1-yl)piperidine-1-carbonyl)-3-cyclopropylacrylonitrile]
